In PubChem BioAssay AID1259407 (Chemical Carcinogenesis Research Information System (CCRIS), 2018):
Activity calls are given as the source filed them. How the calls were made is not given here.

Tested on: CCRIS mutagenicity, Ames/micronucleus/aberration tests
Test: CCRIS mutagenicity studies
[1] = Test System: AMES SALMONELLA TYPHIMURIUM, Strain/Indicator: TA98, Metabolic Activation: NONE, Method: STANDARD PLATE
[2] = Test System: AMES SALMONELLA TYPHIMURIUM, Strain/Indicator: TA100, Metabolic Activation: NONE, Method: STANDARD PLATE
[3] = Test System: AMES SALMONELLA TYPHIMURIUM, Strain/Indicator: TA100, Metabolic Activation: RAT, LIVER, S-9, AROCLOR 1254, Method: STANDARD PLATE
[4] = Test System: AMES SALMONELLA TYPHIMURIUM, Strain/Indicator: TA98, Metabolic Activation: NONE, Method: PREINCUBATION
[5] = Test System: AMES SALMONELLA TYPHIMURIUM, Strain/Indicator: TA100, Metabolic Activation: NONE, Method: PREINCUBATION

OC[C@H]1O[C@@H](n2cnc3c(NO)ncnc32)[C@H](O)[C@@H]1O
mutagenic call [1]: active; positive | mutagenic call (Test System: AMES SALMONELLA TYPHIMURIUM, Strain/Indicator: TA100(TN5-1,8-DNP1011), Metabolic Activation: NONE, Method: STANDARD PLATE): active; positive | mutagenic call (Test System: AMES SALMONELLA TYPHIMURIUM, Strain/Indicator: TA100(TN5-1,8-DNP1012), Metabolic Activation: NONE, Method: STANDARD PLATE): active; positive | mutagenic call [2]: active; positive | mutagenic call (Test System: AMES SALMONELLA TYPHIMURIUM, Strain/Indicator: TA102, Metabolic Activation: NONE, Method: STANDARD PLATE): inactive; negative

Cc1cc(NS(=O)(=O)c2ccc(N)cc2)no1
mutagenic call (End Point: AMES SALMONELLA TYPHIMURIUM, Test System: TA98, Metabolic Activation: NONE, Method: STANDARD PLATE): active; positive | mutagenic call (End Point: AMES SALMONELLA TYPHIMURIUM, Test System: TA100, Metabolic Activation: NONE, Method: STANDARD PLATE): active; positive

CC[C@H](C)[C@@H]([C@@H](CC(=O)N1CCC[C@H]1[C@H](OC)[C@@H](C)C(=O)N[C@@H](Cc1ccccc1)c1nccs1)OC)N(C)C(=O)[C@@H](NC(=O)[C@H](C(C)C)N(C)C)C(C)C
mutagenic call (Test System: AMES SALMONELLA TYPHIMURIUM, Strain/Indicator: TA98, Metabolic Activation: HAMSTER, LIVER, S-9, AROCLOR 1254, Method: STANDARD PLATE): inactive; negative | mutagenic call [1]: inactive; negative | mutagenic call (Test System: AMES SALMONELLA TYPHIMURIUM, Strain/Indicator: TA98, Metabolic Activation: RAT, LIVER, S-9, AROCLOR 1254, Method: STANDARD PLATE): inactive; negative | mutagenic call (Test System: AMES SALMONELLA TYPHIMURIUM, Strain/Indicator: TA100, Metabolic Activation: HAMSTER, LIVER, S-9, AROCLOR 1254, Method: STANDARD PLATE): inactive; negative | mutagenic call [2]: inactive; negative | mutagenic call [3]: inactive; negative | mutagenic call (Test System: AMES SALMONELLA TYPHIMURIUM, Strain/Indicator: TA1535, Metabolic Activation: HAMSTER, LIVER, S-9, AROCLOR 1254, Method: STANDARD PLATE): inactive; negative | mutagenic call (Test System: AMES SALMONELLA TYPHIMURIUM, Strain/Indicator: TA1535, Metabolic Activation: NONE, Method: STANDARD PLATE): inactive; negative | mutagenic call (Test System: AMES SALMONELLA TYPHIMURIUM, Strain/Indicator: TA1535, Metabolic Activation: RAT, LIVER, S-9, AROCLOR 1254, Method: STANDARD PLATE): inactive; negative | mutagenic call (Test System: AMES SALMONELLA TYPHIMURIUM, Strain/Indicator: TA1537, Metabolic Activation: HAMSTER, LIVER, S-9, AROCLOR 1254, Method: STANDARD PLATE): inactive; negative | mutagenic call (Test System: AMES SALMONELLA TYPHIMURIUM, Strain/Indicator: TA1537, Metabolic Activation: NONE, Method: STANDARD PLATE): inactive; negative | mutagenic call (Test System: AMES SALMONELLA TYPHIMURIUM, Strain/Indicator: TA1537, Metabolic Activation: RAT, LIVER, S-9, AROCLOR 1254, Method: STANDARD PLATE): inactive; negative | mutagenic call (Test System: AMES SALMONELLA TYPHIMURIUM, Strain/Indicator: TA1538, Metabolic Activation: HAMSTER, LIVER, S-9, AROCLOR 1254, Method: STANDARD PLATE): inactive; negative | mutagenic call (Test System: AMES SALMONELLA TYPHIMURIUM, Strain/Indicator: TA1538, Metabolic Activation: NONE, Method: STANDARD PLATE): inactive; negative | mutagenic call (Test System: AMES SALMONELLA TYPHIMURIUM, Strain/Indicator: TA1538, Metabolic Activation: RAT, LIVER, S-9, AROCLOR 1254, Method: STANDARD PLATE): inactive; negative | mutagenic call (Test System: MOUSE LYMPHOMA, Strain/Indicator: L5178Y (TK+/TK-), Metabolic Activation: NONE, Method: SUSPENSION/PLATE): active; positive. reevaluation of results: inconclusive | mutagenic call (Test System: MOUSE LYMPHOMA, Strain/Indicator: L5178Y (TK+/TK-), Metabolic Activation: RAT, LIVER, S-9, AROCLOR 1254, Method: SUSPENSION/PLATE): inactive; negative. reevaluation of results: negative

CCCN(CCCCO)N=O
mutagenic call (Test System: AMES SALMONELLA TYPHIMURIUM, Strain/Indicator: TA1535, Metabolic Activation: RAT, LIVER, S-9, KC500 OR PHENOBARBITAL, Method: LIQUID SUSPENSION): active; positive

C=CC1=C(C)/C(=C/c2[nH]c(Cc3[nH]c(/C=C4\NC(=O)C(C)=C4C=C)c(C)c3CCC(=O)O)c(CCC(=O)O)c2C)NC1=O
mutagenic call (Test System: Ames Salmonella typhimurium, Strain/Indicator: TA98, Metabolic Activation: Liver, S-9, Method: Preincubation): inactive; negative | mutagenic call (Test System: Ames Salmonella typhimurium, Strain/Indicator: TA98, Metabolic Activation: None, Method: Preincubation): inactive; negative | mutagenic call (Test System: Ames Salmonella typhimurium, Strain/Indicator: TA100, Metabolic Activation: Liver, S-9, Method: Preincubation): inactive; negative | mutagenic call (Test System: Ames Salmonella typhimurium, Strain/Indicator: TA100, Metabolic Activation: None, Method: Preincubation): inactive; negative | mutagenic call (Test System: Ames Salmonella typhimurium, Strain/Indicator: TA102, Metabolic Activation: Liver, S-9, Method: Preincubation): inactive; negative | mutagenic call (Test System: Ames Salmonella typhimurium, Strain/Indicator: TA102, Metabolic Activation: None, Method: Preincubation): inactive; negative

c1ccc2cc3c(cc2c1)-c1cccc2cccc-3c12
mutagenic call (Test System: AMES SALMONELLA TYPHIMURIUM, Strain/Indicator: TA98, Metabolic Activation: HAMSTER, LIVER, S-9, AROCLOR 1254 (30%), Method: PREINCUBATION): active; positive | mutagenic call [4]: inactive; negative | mutagenic call (Test System: AMES SALMONELLA TYPHIMURIUM, Strain/Indicator: TA98, Metabolic Activation: RAT, LIVER, S-9, AROCLOR 1254 (30%), Method: PREINCUBATION): active; positive | mutagenic call (Test System: AMES SALMONELLA TYPHIMURIUM, Strain/Indicator: TA100, Metabolic Activation: HAMSTER, LIVER, S-9, AROCLOR 1254 (30%), Method: PREINCUBATION): active; positive | mutagenic call [5]: inactive; negative | mutagenic call (Test System: AMES SALMONELLA TYPHIMURIUM, Strain/Indicator: TA100, Metabolic Activation: RAT, LIVER, S-9, AROCLOR 1254): active; positive | mutagenic call (Test System: AMES SALMONELLA TYPHIMURIUM, Strain/Indicator: TA100, Metabolic Activation: RAT, LIVER, S-9, AROCLOR 1254 (30%), Method: PREINCUBATION): active; positive | mutagenic call [3]: active; positive

C[C@H](CCC(=O)O)[C@H]1CC[C@H]2[C@@H]3CC[C@@H]4C[C@@H](O)CC[C@]4(C)[C@H]3CC(=O)[C@]12C
mutagenic call (Test System: AMES SALMONELLA TYPHIMURIUM, Strain/Indicator: TA98, Metabolic Activation: NONE, Method: FLUCTUATION TEST): inactive; negative | mutagenic call [4]: inactive; negative | mutagenic call (Test System: AMES SALMONELLA TYPHIMURIUM, Strain/Indicator: TA98, Metabolic Activation: RAT, LIVER, S-9, PCB, Method: PREINCUBATION): inactive; negative | mutagenic call (Test System: AMES SALMONELLA TYPHIMURIUM, Strain/Indicator: TA100, Metabolic Activation: NONE, Method: FLUCTUATION TEST): inactive; negative

O=CC(=C(Cl)Cl)C(Cl)Cl
mutagenic call [2]: active; positive

C[C@H](CN=[N+]=[N-])c1ccccc1
mutagenic call [5]: inactive; negative | mutagenic call (Test System: AMES SALMONELLA TYPHIMURIUM, Strain/Indicator: TA100, Metabolic Activation: RAT, LIVER, S-9, PCB, Method: PREINCUBATION): active; positive

COC(=O)c1oc([N+](=O)[O-])c(-c2ccccc2)c1-c1ccccc1
mutagenic call (Test System: AMES SALMONELLA TYPHIMURIUM, Strain/Indicator: TA98(1,8-DNP6), Metabolic Activation: NONE, Method: STANDARD PLATE): active; positive | mutagenic call (Test System: AMES SALMONELLA TYPHIMURIUM, Strain/Indicator: TA98(NR), Metabolic Activation: NONE, Method: STANDARD PLATE): inactive; negative | mutagenic call [4]: active; positive | mutagenic call [1]: active; positive | mutagenic call (Test System: AMES SALMONELLA TYPHIMURIUM, Strain/Indicator: TA100(NR), Metabolic Activation: NONE, Method: STANDARD PLATE): active; positive | mutagenic call [5]: active; positive | mutagenic call [2]: active; positive | mutagenic call (Test System: AMES SALMONELLA TYPHIMURIUM, Strain/Indicator: TA104, Metabolic Activation: NONE, Method: STANDARD PLATE): active; positive

Cn1ccnc1N=O
mutagenic call [2]: active; positive
